Holding throughout (assay): growth of human tumour cells (NCI), 48 h
For experiment [1], the system named is HOP-62.
The subject of experiment [2] is T47D.
The subject of experiment [3] is OVCAR-4.
In experiment [4] the test system is UACC-257.
Experiment [5] deals with SK-MEL-5.
In experiment [6] the test system is MDA-MB-231.
The test system of experiment [7] is OVCAR-5.
The test system of experiment [8] is UO-31.
For experiment [9], the system named is CAKI-1.
Experiment [10] deals with K562.
For experiment [11], the system named is HT-29.
The subject of experiment [12] is LOX IMVI.
The subject of experiment [13] is Hs-578T.
Experiment [14] relates to HCT-116.
Experiment [15] concerns TK-10.
In experiment [16] the test system is MCF7.
Experiment [17] has as its system RPMI-8226.
The subject of experiment [18] is RXF 393.
In experiment [19] the test system is NCI-H226.
Experiment [20] deals with CCRF-CEM.

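Results reflect a 48-hour exposure of cells in 96-well plates to compound at five concentrations. The concentration for 50% growth inhibition is given as GI50.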 The source made the active and inactive calls. Cut-off read from the data, not from the text of the source: active = GI50 up to about 1.1 µM and inactive = higher. Some results are limits rather than exact numbers.

With `COc1cccc2c(N)c3cccc(C(=O)NCCN(C)C)c3nc12`, the GI50 in experiment [1] is 0.0578 µM (active); in experiment [2] it was 0.274 µM (active); in experiment [3], 0.157 µM (active); in [4] it was 0.701 µM (active); in experiment [5], 0.367 µM (active); in experiment [6], 0.214 µM (active). Further, the GI50 in experiment [7] is 0.344 µM (active); in experiment [8], 0.462 µM (active); in [9], 0.103 µM (active); in [10], 0.0415 µM (active); in experiment [11], 0.053 µM (active); in experiment [12] it was 0.0513 µM (active). In addition, the GI50 is 0.0746 µM (active) in experiment [13]; 0.0748 µM (active) in experiment [14]; 0.439 µM (active) in experiment [15]; 0.0146 µM (active) in experiment [16]; 0.221 µM (active) in experiment [17]; 0.213 µM (active) in [18]. Also, the GI50 in experiment [19] was 0.11 µM (active); in experiment [20] it was < 0.01 µM (active).

Regarding `O=[N+]([O-])c1cc2c(cc1/C=N/n1c(CO)nc3ccccc31)OCO2`, the GI50 in experiment [1], in [2], in [3], in experiment [4], in experiment [5] and in [6] was > 100 µM (inactive) each time. The GI50 in experiment [7], in experiment [8], in experiment [9], in experiment [10], in experiment [11] and in [12] was > 100 µM (inactive) throughout. Moreover, the GI50 in experiment [13], in [14], in experiment [15], in experiment [16], in [17] and in experiment [18] was > 100 µM (inactive) throughout. The GI50 in experiment [19] and in [20] was > 100 µM (inactive) throughout.

In the case of `O=C(/C=C/c1cccs1)c1ccccc1Cl`, the GI50 in [1] is 15.8 µM (inactive); in experiment [2] it was 5.96 µM (inactive); in [3], 6.31 µM (inactive); in experiment [4], 17.8 µM (inactive); in [5], 16.4 µM (inactive); in experiment [6] it was 19.2 µM (inactive). Further, the GI50 in experiment [7] is 14.6 µM (inactive); in [8], 0.615 µM (active); in experiment [9], 10.6 µM (inactive); in experiment [10], 21.3 µM (inactive); in experiment [11] it was 16.9 µM (inactive); in experiment [12], 12.4 µM (inactive). Besides, the GI50 in experiment [13] is 14.1 µM (inactive); in experiment [14], 13 µM (inactive); in experiment [15] it was 16.4 µM (inactive); in experiment [16], 4.65 µM (inactive); in experiment [17], 16 µM (inactive); in [18], 7.24 µM (inactive). In addition, the GI50 in [19] was 32.8 µM (inactive); in experiment [20], 8.71 µM (inactive).

With `CC(=O)OCC(OC(C)=O)C(OC(C)=O)C(OC(C)=O)C(C=NN(C(C)=O)S(=O)(=O)c1ccc(/C=C2\NC(=O)N(C)C2=O)cc1)OC(C)=O` (stereo not given), the GI50 was 85.1 µM (inactive) in experiment [1]; 27.1 µM (inactive) in [2]; 53.5 µM (inactive) in experiment [3]; 43.9 µM (inactive) in [4]; 30.1 µM (inactive) in experiment [5]; 36.1 µM (inactive) in experiment [6]. Besides, the GI50 in experiment [7] is 83.2 µM (inactive); in experiment [8], 57.5 µM (inactive); in experiment [9], 40.2 µM (inactive); in experiment [10] it was 21.4 µM (inactive); in experiment [11], 34.9 µM (inactive); in experiment [12], 21.8 µM (inactive). The GI50 is 32.9 µM (inactive) in experiment [13]; 16.9 µM (inactive) in experiment [14]; 3.35 µM (inactive) in experiment [15]; 40.1 µM (inactive) in experiment [16]; 24.2 µM (inactive) in [17]; 20.5 µM (inactive) in experiment [18]. Moreover, the GI50 in [19] was 38.7 µM (inactive); in experiment [20], 13 µM (inactive).

With `COC(=O)/C=C1/OC(c2ccccc2)=C(Cl)C1=O`, the GI50 in experiment [1] is 25.9 µM (inactive); in experiment [2] it was 19.1 µM (inactive); in experiment [3], 20.7 µM (inactive); in experiment [4], 24.9 µM (inactive); in [5] it was 14.9 µM (inactive); in experiment [6], 18.8 µM (inactive). The GI50 in experiment [7] was 19 µM (inactive); in experiment [8], 20.9 µM (inactive); in [9] it was 18.2 µM (inactive); in [10], 6.07 µM (inactive); in [11] it was 22.3 µM (inactive); in experiment [12] it was 13.6 µM (inactive). Besides, the GI50 in [13] was 21.5 µM (inactive); in experiment [14] it was 13.1 µM (inactive); in experiment [15] it was 31.9 µM (inactive); in experiment [16] it was 16.7 µM (inactive); in [17], 7.33 µM (inactive); in experiment [18], 15.7 µM (inactive). The GI50 in experiment [19] is 27.5 µM (inactive); in experiment [20], 5.58 µM (inactive).

Consider `O=C(Nc1ccc(Cl)cc1Cl)C1C(=O)OC2(CCCCC2)OC1=O`, for which the GI50 is 4.38 µM (inactive) in experiment [1]; 12.5 µM (inactive) in [2]; 9.18 µM (inactive) in experiment [3]; 12.1 µM (inactive) in experiment [4]; 2.17 µM (inactive) in experiment [5]; 14.1 µM (inactive) in experiment [6]. Also, the GI50 in experiment [7] is 9.12 µM (inactive); in experiment [8], 2.94 µM (inactive); in experiment [9], 4.78 µM (inactive); in experiment [10], 4.72 µM (inactive); in experiment [11], 11.5 µM (inactive); in experiment [12], 6.22 µM (inactive). For the same compound, the GI50 in experiment [13] is 10.8 µM (inactive); in experiment [14], 6.08 µM (inactive); in experiment [15] it was 14.1 µM (inactive); in experiment [16], 7.29 µM (inactive); in experiment [17], 4.16 µM (inactive); in experiment [18] it was 5.36 µM (inactive). Besides, the GI50 in experiment [19] is 12.6 µM (inactive); in [20] it was 4.24 µM (inactive).

As for `O=C1Nc2ccccc2/C1=C1/Nc2ccccc2/C1=N\OCCOC1OCC(O)C(O)C1O` (stereo not given), the GI50 in [1] was 6.38 µM (inactive); in [2], 41.1 µM (inactive); in [3], > 100 µM (inactive); in experiment [4] it was > 100 µM (inactive); in [5], 17.9 µM (inactive); in [6], > 100 µM (inactive). Moreover, the GI50 in experiment [7] is > 100 µM (inactive); in experiment [8], > 100 µM (inactive); in experiment [9], 6.78 µM (inactive); in experiment [10], > 100 µM (inactive); in experiment [11] it was > 100 µM (inactive); in experiment [12], 8.59 µM (inactive). In addition, the GI50 in experiment [13] was > 100 µM (inactive); in [14], 32.8 µM (inactive); in experiment [15], 81.3 µM (inactive); in experiment [16], 53.2 µM (inactive); in experiment [17], > 100 µM (inactive); in experiment [18], 50.6 µM (inactive). The GI50 in [19] is 69.3 µM (inactive); in experiment [20], > 100 µM (inactive).

The values above are taken from ChEMBL document CHEMBL1201862, “PubChem BioAssay data set” (2004).
